Experimental findings from US20240335431A1, “1-H-PYRROLO[2,3-c]PYRIDINE COMPOUNDS” (Acerta Pharma B.V., priority 2023, published 2024) are described below.

A short description of data set [1]: Human hepatocyte intrinsic clearance assay. It is filed as in vitro ADME. To be noted: human hepatocytes. An outline of the steps:
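Pooled 10-donor cryopreserved human hepatocytes in suspension (0.25×10^6 cells in 0.25 mL) incubated with test compound at […], 37° C. Samples taken 0.5–120 min and quenched in acetonitrile, parent remaining measured by LC-MS/MS. CLint ([…]) derived from slope of ln % remaining vs time.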

Data set [2] is described as follows: Caco-2 cell monolayers intrinsic permeation assay in the presence of efflux inhibitors. It is filed as in vitro ADME. To be noted: Caco-2, with efflux inhibitors. In a few lines: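 Caco-2 monolayers grown 14–18 days on Transwells; compound dosed apically in HBSS with efflux inhibitors (Zosuquidar, Benzbromarone, KO-143), inhibitors also basolateral, 37 °C with shaking. Sampled at 0, 45 and 120 min, analysed by LC/MS/MS; apical-to-basolateral Papp (cm/s) calculated.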
Background: Caco-2 monolayers are a common model of the intestinal barrier.

As a reminder, the Papp A→B is the apparent permeability from the apical to the basolateral side of a cell layer. On to `CC(C)N(C(=O)c1cc(F)ccc1-n1cc(C(=O)[C@H]2CCN(C(=O)[C@H]3N[C@@H]4CC[C@H]3C4)C2)c2ccncc21)C(C)C` [Example 2, 2-(3-((S)-1-((1R,3S,4S)-2-Azabicyclo[2.2.1]heptane-3-carbonyl)pyrrolidine-3-carbonyl)-1H-pyrrolo[2,3-c]pyridin-1-yl)-5-fluoro-N,N-diisopropylbenzamide], for which, in data set [1], the “HH CLint” value is less than 1.0 μl/min/1E6. Moreover, the Papp A→B in data set [2] was determined as 0.4 ×10⁻⁶ cm/s.
With `CC(C)N(C(=O)c1cc(F)ccc1-n1cc(C(=O)[C@@H]2CCN(C(=O)[C@H]3N[C@@H]4CC[C@H]3C4)C2)c2ccncc21)C(C)C` [Example 3, 2-(3-((R)-1-((1R,3S,4S)-2-Azabicyclo[2.2.1]heptane-3-carbonyl)pyrrolidine-3-carbonyl)-1H-pyrrolo[2,3-c]pyridin-1-yl)-5-fluoro-N,N-diisopropylbenzamide], the “HH CLint” value in data set [1] is given as less than 1.0 μl/min/1E6. In data set [2], the Papp A→B was determined as 0.3 ×10⁻⁶ cm/s.
On to `CC(C)N(C(=O)c1cc(F)ccc1-n1cc(C(=O)[C@@H]2CCN(C[C@H]3CC[C@H](NS(C)(=O)=O)CC3)C2)c2ccncc21)C(C)C` [Example 4, 5-Fluoro-N,N-diisopropyl-2-(3-((R)-1-(((1r,4R)-4-(methylsulfonamido)-cyclohexyl)methyl)pyrrolidine-3-carbonyl)-1H-pyrrolo[2,3-c]pyridin-1-yl)benzamide], for which the “HH CLint” value in data set [1] was 2.3 μl/min/1E6. Moreover, the Papp A→B in data set [2] worked out at 2 ×10⁻⁶ cm/s.
On to `CC(C)N(C(=O)c1cc(F)ccc1-n1cc(C(=O)C2CN(C(=O)[C@H]3N[C@@H]4CC[C@H]3C4)C2)c2ccncc21)C(C)C` [Example 5, 2-(3-(1-((1R,3S,4S)-2-Azabicyclo[2.2.1]heptane-3-carbonyl)azetidine-3-carbonyl)-1H-pyrrolo[2,3-c]pyridin-1-yl)-5-fluoro-N,N-diisopropylbenzamide], for which the “HH CLint” value in data set [1] is on record as less than 1.0 μl/min/1E6. Besides, the Papp A→B in data set [2] was determined as 1.2 ×10⁻⁶ cm/s.
As to `CC(C)N(C(=O)c1cc(F)ccc1-n1cc(C(=O)C2CN(C(=O)[C@H]3N[C@H]4C[C@@H]3[C@@H](F)C4)C2)c2ccncc21)C(C)C` [Example 7, 5-Fluoro-2-(3-(1-((1S,3S,4S,5S)-5-fluoro-2-azabicyclo[2.2.1]heptane-3-carbonyl)azetidine-3-carbonyl)-1H-pyrrolo[2,3-c]pyridin-1-yl)-N,N-diisopropylbenzamide], the “HH CLint” value in data set [1] stood at 3.2 μl/min/1E6. The Papp A→B in data set [2] came to 2.2 ×10⁻⁶ cm/s.
Turning to `CCN(C(=O)c1cc(F)ccc1-n1cc(C(=O)C2CN(C(=O)[C@H]3NC4CCC3CC4)C2)c2ccncc21)C(C)C` [Example 9, (S)-2-(3-(1-(2-Azabicyclo[2.2.2]octane-3-carbonyl)azetidine-3-carbonyl)-1H-pyrrolo[2,3-c]pyridin-1-yl)-N-ethyl-5-fluoro-N-isopropylbenzamide], in data set [1], the “HH CLint” value is on record as 3.8 μl/min/1E6. The Papp A→B in data set [2] amounted to 0.5 ×10⁻⁶ cm/s.
For the compound `CC(C)c1ncccc1-c1cc(F)ccc1-n1cc(C(=O)C2CN(C(=O)[C@H]3N[C@@H]4CC[C@H]3C4)C2)c2ccncc21` [Example 10, (1-((1R,3S,4S)-2-Azabicyclo[2.2.1]heptane-3-carbonyl)azetidin-3-yl)(1-(4-fluoro-2-(2-isopropylpyridin-3-yl)phenyl)-1H-pyrrolo[2,3-c]pyridin-3-yl)methanone], the “HH CLint” value in data set [1] was less than 2.2 μl/min/1E6. Further, the apparent permeability from apical to basolateral (Papp A→B) in data set [2] was 2.6 ×10⁻⁶ cm/s.
Consider `CC(C)c1cnccc1-c1cc(F)ccc1-n1cc(C(=O)C2CN(C(=O)[C@H]3N[C@@H]4CC[C@H]3C4)C2)c2ccncc21.O=CO` [Example 11, (1-((1R,3S,4S)-2-Azabicyclo[2.2.1]heptane-3-carbonyl)azetidin-3-yl)(1-(4-fluoro-2-(3-isopropylpyridin-4-yl)phenyl)-1H-pyrrolo[2,3-c]pyridin-3-yl)methanone 1·formic acid], for which the “HH CLint” value in data set [1] was less than 1.0 μl/min/1E6. Besides, the Papp A→B in data set [2] came to 0.7 ×10⁻⁶ cm/s.
Regarding `CC(C)c1ncsc1-c1cc(F)ccc1-n1cc(C(=O)C2CN(C(=O)[C@H]3N[C@@H]4CC[C@H]3C4)C2)c2ccncc21.O=CO` [Example 12, (1-((1R,3S,4S)-2-Azabicyclo[2.2.1]heptane-3-carbonyl)azetidin-3-yl)(1-(4-fluoro-2-(4-isopropylthiazol-5-yl)phenyl)-1H-pyrrolo[2,3-c]pyridin-3-yl)methanone 1·formic acid], the “HH CLint” value in data set [1] came to 3.9 μl/min/1E6. Also, the Papp A→B in data set [2] was found to be 1.6 ×10⁻⁶ cm/s.
With `CC(C)N(C(=O)c1cc(F)ccc1-n1cc(C(=O)C2CN(C(=O)[C@H]3N[C@@H]4CC[C@H]3C4)C2)c2ccnc(F)c21)C(C)C` [Example 15, 2-(3-(1-((1R,3S,4S)-2-Azabicyclo[2.2.1]heptane-3-carbonyl)azetidine-3-carbonyl)-7-fluoro-1H-pyrrolo[2,3-c]pyridin-1-yl)-5-fluoro-N,N-diisopropylbenzamide], the “HH CLint” value in data set [1] worked out at 2.9 μl/min/1E6. The Papp A→B in data set [2] came to 4.2 ×10⁻⁶ cm/s.
With `CC(C)N(C(=O)c1cc(F)ccc1-n1cc(C(=O)C2CCN(C(=O)[C@H]3N[C@@H]4CC[C@H]3C4)CC2)c2ccncc21)C(C)C` [Example 16, 2-(3-(1-((1R,3S,4S)-2-Azabicyclo[2.2.1]heptane-3-carbonyl)piperidine-4-carbonyl)-1H-pyrrolo[2,3-c]pyridin-1-yl)-5-fluoro-N,N-diisopropylbenzamide], in data set [1], the “HH CLint” value is less than 1.0 μl/min/1E6. The Papp A→B in data set [2] is 0.6 ×10⁻⁶ cm/s.
Regarding `CC(C)N(C(=O)c1cc(F)ccc1-n1cc(C(=O)C2CCN(C[C@H]3CC[C@H](NS(C)(=O)=O)CC3)CC2)c2ccncc21)C(C)C` [Example 17, 5-Fluoro-N,N-diisopropyl-2-(3-(1-(((1r,4r)-4-(methylsulfonamido)cyclohexyl)-methyl)piperidine-4-carbonyl)-1H-pyrrolo[2,3-c]pyridin-1-yl)benzamide], the “HH CLint” value in data set [1] stood at 1.2 μl/min/1E6. In addition, the Papp A→B in data set [2] is 1.8 ×10⁻⁶ cm/s.
With `C=C1C[C@@H]2CC[C@H]1[C@@H](C(=O)N1CCC(C(=O)c3cn(-c4ccc(F)cc4C(=O)N(C(C)C)C(C)C)c4cnccc34)CC1)N2` [Example 18, 5-Fluoro-N,N-diisopropyl-2-(3-(1-((1S,3S,4R)-5-methylene-2-azabicyclo[2.2.2]-octane-3-carbonyl)piperidine-4-carbonyl)-1H-pyrrolo[2,3-c]pyridin-1-yl)benzamide], the “HH CLint” value in data set [1] is 1.6 μl/min/1E6. In addition, the Papp A→B in data set [2] amounted to 3.1 ×10⁻⁶ cm/s.
For `CC(C)N(C(=O)c1cc(F)ccc1-n1cc(C(=O)C2CCN(C(=O)[C@H]3NC[C@@H]4C[C@@H]43)CC2)c2ccncc21)C(C)C` [Example 19, 2-(3-(1-((1S,2S,5R)-3-Azabicyclo[3.1.0]hexane-2-carbonyl)piperidine-4-carbonyl)-1H-pyrrolo[2,3-c]pyridin-1-yl)-5-fluoro-N,N-diisopropylbenzamide], in data set [1], the “HH CLint” value amounted to 3.6 μl/min/1E6. Also, the Papp A→B in data set [2] worked out at 2.6 ×10⁻⁶ cm/s.
Take `CC(C)N(C(=O)c1cc(F)ccc1-n1cc(C(=O)C2CCN(C(=O)[C@H]3NC4CCC3CC4)CC2)c2ccncc21)C(C)C` [Example 20, (S)-2-(3-(1-(2-Azabicyclo[2.2.2]octane-3-carbonyl)piperidine-4-carbonyl)-1H-pyrrolo[2,3-c]pyridin-1-yl)-5-fluoro-N,N-diisopropylbenzamide]: the “HH CLint” value in data set [1] is listed as less than 1.0 μl/min/1E6. In addition, the Papp A→B in data set [2] stood at 0.8 ×10⁻⁶ cm/s.
As to `CC(C)N(C(=O)c1cc(F)ccc1-n1cc(C(=O)C2CCN(C(=O)[C@H]3NC[C@@H]4CCC[C@@H]43)CC2)c2ccncc21)C(C)C` [Example 21, 5-Fluoro-N,N-diisopropyl-2-(3-(1-((1S,3αR,6αS)-octahydrocyclopenta[c]pyrrole-1-carbonyl)piperidine-4-carbonyl)-1H-pyrrolo[2,3-c]pyridin-1-yl)benzamide], in data set [1], the “HH CLint” value amounted to 2.0 μl/min/1E6. In addition, in data set [2], the Papp A→B was 1.7 ×10⁻⁶ cm/s.
On to `CC(C)N(C(=O)c1cc(F)ccc1-n1cc(C(=O)C2CCN(C(=O)[C@H]3N[C@H]4C[C@@H]3[C@@H](F)C4)CC2)c2ccncc21)C(C)C` [Example 22, 5-Fluoro-2-(3-(1-((1S,3S,4S,5S)-5-fluoro-2-azabicyclo[2.2.1]heptane-3-carbonyl)piperidine-4-carbonyl)-1H-pyrrolo[2,3-c]pyridin-1-yl)-N,N-diisopropylbenzamide], for which the “HH CLint” value in data set [1] is less than 1.7 μl/min/1E6. The Papp A→B in data set [2] stood at 3 ×10⁻⁶ cm/s.
On to `CC(C)N(C(=O)c1cc(F)ccc1-n1cc(C(=O)C2CCN(C(=O)[C@@H]3CCC4(CC4)N3)CC2)c2ccncc21)C(C)C` [Example 24, (S)-2-(3-(1-(4-Azaspiro[2.4]heptane-5-carbonyl)piperidine-4-carbonyl)-1H-pyrrolo[2,3-c]pyridin-1-yl)-5-fluoro-N,N-diisopropylbenzamide], for which the “HH CLint” value in data set [1] is recorded as 4.1 μl/min/1E6. Also, the Papp A→B in data set [2] came out at 18.2 ×10⁻⁶ cm/s.
Take `CC(C)N(C(=O)c1cc(F)ccc1-n1cc(C(=O)C2CCN(C(=O)[C@@H]3CC4(CC4)CN3)CC2)c2ccncc21)C(C)C` [Example 26, (S)-2-(3-(1-(5-Azaspiro[2.4]heptane-6-carbonyl)piperidine-4-carbonyl)-1H-pyrrolo[2,3-c]pyridin-1-yl)-5-fluoro-N,N-diisopropylbenzamide]: the “HH CLint” value in data set [1] is listed as less than 1.0 μl/min/1E6. For the same compound, the Papp A→B in data set [2] was determined as 0.8 ×10⁻⁶ cm/s.
As to `CC(C)N(C(=O)c1cc(F)ccc1-n1cc(C(=O)C2CCN(C(=O)[C@@H]3CCC(C)(C)N3)CC2)c2ccncc21)C(C)C` [Example 27, (S)-2-(3-(1-(5,5-Dimethylpyrrolidine-2-carbonyl)piperidine-4-carbonyl)-1H-pyrrolo[2,3-c]pyridin-1-yl)-5-fluoro-N,N-diisopropylbenzamide], the “HH CLint” value in data set [1] is less than 1.0 μl/min/1E6. For the same compound, the Papp A→B in data set [2] turned out to be 1.9 ×10⁻⁶ cm/s.
